Here are results for 14 compounds from patent US20090088466A1, “OPIOID RECEPTOR LIGANDS” (priority 2005, published 2009).

Data set [1] deals with T1, HA-N-terminus tagged μOR (Mus musculus, UniProt P42866).
T1 construct: expressed in transfected cells
Kind of data set: Immunofluorescence of cell surface receptors. Particulars: intact nonpermeabilized HEK-293 cells; drug treatment over 2 hours. The class given is cell-based.

Data set [2] concerns the target κOR (Homo sapiens, UniProt P41145). The following applies: cited from earlier work.
For data set [3], the target named is δOR (Homo sapiens, UniProt P41143). Particulars: CHO cells stably expressing each receptor type; cited from earlier work.
Sequence of δOR (P41143 whole entry): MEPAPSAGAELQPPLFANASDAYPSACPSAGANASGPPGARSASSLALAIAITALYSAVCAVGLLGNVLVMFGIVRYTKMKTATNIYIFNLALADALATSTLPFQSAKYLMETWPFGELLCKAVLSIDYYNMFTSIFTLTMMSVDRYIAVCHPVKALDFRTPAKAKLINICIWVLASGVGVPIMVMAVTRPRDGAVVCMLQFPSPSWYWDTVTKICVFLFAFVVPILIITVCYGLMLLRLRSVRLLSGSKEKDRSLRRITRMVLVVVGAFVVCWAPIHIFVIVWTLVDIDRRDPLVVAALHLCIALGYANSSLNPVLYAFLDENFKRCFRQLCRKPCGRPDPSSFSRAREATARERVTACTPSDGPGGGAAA
For data set [4], the target named is T2, hemagglutinin (HA-N-terminus) tagged mouse μOR (Mus musculus, UniProt P42866).
T2 construct: expressed in transfected cells
Kind of data set: Phospho-ERK1/2 immunoblot assay. The data set is classed as cell-based. (In general: A western blot detects proteins with antibodies after separation by electrophoresis.)

Data set [5] concerns the target T3, μOR1-D splice variant of the mouse μOR (Mus musculus, UniProt P42866).
T3 construct: expressed in transfected cells; host or cells: HEK-293 (transient)
The data set can be described thus: Agonist-induced μOR1-D-GFP internalization. The data set is classed as cell-based. Particulars: HEK-293 transiently transfected with μOR1-D-GFP.

Data set [6] addresses μOR (Homo sapiens, UniProt P35372). The following applies: CHO cells stably expressing each receptor type; cited from earlier work.
The target in data set [7] is T4, HA-μOR (Mus musculus, UniProt P42866).
T4 construct: expressed in transfected cells; host or cells: HEK-293 (transient)
Kind of data set: Agonist-induced βarr2-GFP translocation to μOR in HEK-293 cells. The data set is classed as cell-based.

The subject of data set [8] is formalin-induced nociceptive responses. Kind of data set: Formalin rat paw withdrawal test. The data set is classed as in vivo. The text has this: Animals: Male Sprague-Dawley rats (Harlan, Indianapolis, Ind.) weighing 250-275 g were used. Rats were housed one to two per cage with free access to food and water, and maintained on a 12-h light/dark cycle in the Association for the Assessment and Accreditation of Laboratory Animal Care-approved animal care facility. The Institutional Animal Care and Use Committee of The University of Iowa approved all experimental procedures.
Formalin Rat Paw Withdrawal Test: Rats were placed in clear plexiglass testing chambers (30.5×30.5×30.5 cm) and allowed to acclimate for 20 minutes. A mirror was placed at a 45° angle below the floor to allow for an unobstructed view of the rats paws. No restraint was placed on the rats and a HEPA filter was continuously run in order to mask external noise. Following the 20-min acclimation period, animals received a 100 μL injection of either Compound Vb (˜0.04 mg/kg) or vehicle subcutaneously in the paw and were placed back into the testing chamber for 5 minutes (Joshi et al., 2000; Joshi and Gebhart, 2003). Animals were then injected with 100 μL of a 1.25% formalin solution into the plantar surface according to the methods previously described (Dubuisson, D. & Dennis, S. G., […], Pain 4, 161-74; Wheeler-Aceto, H. & Cowan, A., 1991, Psychopharmacology (Berl) 104, 35-44; and Kaneko, M. & Hammond, D. L., 1997, J Pharmacol Exp Ther 282, 928-38). Behavior was observed and tracked for 1 hour and the number of flinches was recorded using a Windows XP-based (Microsoft, Seattle, Wash.) program. Each drug treatment group consisted of 6 rats and no rat was tested more than once. For the antagonist studies, rats were pretreated with either nor-binaltorphimine (nor-BNI) (5 mg/kg, 24 hours prior to agonist) or naloxone (5 mg/kg s.c. 30 min prior to agonist) subcutaneously behind the neck.
Chronic study: Chronic animals were given vehicle or Compound Vb alternating dorsal and plantar surface to avoid sensitization caused from injections at the same site over a 5 day period. Following administration of drug on the fifth day, rats were then administered formalin and observed as described above.

Data set [9] concerns the target T5, HA-tagged mu opioid receptor (Mus musculus, UniProt P42866).
T5 construct: expressed in transfected cells
The data set can be described thus: Immunoprecipitation / μOR phosphorylation at serine 375. The data set is classed as cell-based. The following applies: HEK-293 cells stably expressing HA-tagged μOR; 10 μM, 10 min.

For data set [10], the target named is T6, mouse μOR-YFP (Mus musculus, UniProt P42866).
T6 construct: expressed in transfected cells; host or cells: HEK-293 (transient; GRK2 co-transfected in panel C)
Kind of data set: Agonist-induced internalization of μOR-YFP in HEK-293 cells. The class given is cell-based.

The subject of data set [11] is formalin-induced nociceptive responses. Particulars: similar testing conditions (literature); cited from earlier work.
The mark [12] stands for this setting: HEK-293 transiently transfected with mouse μOR-YFP.

Sequence of μOR (P35372 whole entry): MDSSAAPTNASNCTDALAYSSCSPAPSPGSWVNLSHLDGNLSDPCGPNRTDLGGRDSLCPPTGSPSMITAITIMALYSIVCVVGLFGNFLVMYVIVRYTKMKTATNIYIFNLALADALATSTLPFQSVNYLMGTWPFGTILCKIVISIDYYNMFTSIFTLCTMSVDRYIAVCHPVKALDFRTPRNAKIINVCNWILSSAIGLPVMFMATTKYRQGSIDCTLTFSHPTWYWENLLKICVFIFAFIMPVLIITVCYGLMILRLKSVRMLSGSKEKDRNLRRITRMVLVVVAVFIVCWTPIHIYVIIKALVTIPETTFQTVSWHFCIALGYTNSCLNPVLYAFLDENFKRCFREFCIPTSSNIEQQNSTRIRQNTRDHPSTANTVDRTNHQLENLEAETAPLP
Sequence of κOR (P41145 whole entry): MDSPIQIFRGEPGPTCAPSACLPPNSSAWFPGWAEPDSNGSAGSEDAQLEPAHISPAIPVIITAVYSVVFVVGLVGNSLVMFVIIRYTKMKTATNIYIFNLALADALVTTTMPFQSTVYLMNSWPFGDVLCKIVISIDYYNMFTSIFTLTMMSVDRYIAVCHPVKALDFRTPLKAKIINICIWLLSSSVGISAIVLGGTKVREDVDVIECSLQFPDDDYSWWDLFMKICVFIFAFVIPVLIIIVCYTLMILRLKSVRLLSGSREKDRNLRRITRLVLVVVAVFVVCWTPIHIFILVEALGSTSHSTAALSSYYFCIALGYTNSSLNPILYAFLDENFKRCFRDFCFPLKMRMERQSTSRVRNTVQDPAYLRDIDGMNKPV

Broadly, the melting point is the temperature of the solid-liquid transition. On to `COC(=O)[C@@H]1C[C@H](OS(=O)(=O)c2ccc(C)cc2)C(=O)[C@@H]2[C@@]3(C)C[C@@H](c4ccoc4)OC(=O)[C@H]3CC[C@]21C`, for which the melting point was 163 to 165 °C (dec.).
With `COC(=O)[C@@H]1C[C@H](OC(=O)Nc2ccc([N+](=O)[O-])cc2)C(=O)[C@H]2[C@@]1(C)CC[C@H]1C(=O)O[C@H](c3ccoc3)C[C@]21C`, the melting point lay within 251 to 253 °C.
Still for that read-out and setting: the value for `COC(=O)[C@@H]1C[C@H](OC(=O)Cc2ccccc2)C(=O)[C@@H]2[C@@]3(C)C[C@@H](c4ccoc4)OC(=O)[C@H]3CC[C@]21C` was 111 to 114 °C; that for `COC(=O)[C@@H]1C[C@H](OC(=O)c2ccccc2Br)C(=O)[C@@H]2[C@@]3(C)C[C@@H](c4ccoc4)OC(=O)[C@H]3CC[C@]21C` was 189 to 191 °C.
On the same count and under the same terms, the value for `COC(=O)[C@@H]1C[C@H](OC(=O)c2ccsc2)C(=O)[C@H]2[C@@]1(C)CC[C@H]1C(=O)O[C@H](c3ccoc3)C[C@]21C` was 211 to 212 °C.
As to `COC(=O)[C@@H]1C[C@H](OC(=O)c2ccccc2)C(=O)[C@H]2[C@@]1(C)CC[C@H]1C(=O)OC(c3ccoc3)C[C@]21C` (stereo partly shown) [Compound Vb], in data set [1], the “loss of cell surface receptors” value is listed as “maintain the same level of cell surface receptor expression”. Further, in data set [2], the “affinity at κOR” value is reported as “retains some affinity”. In addition, in data set [3], the “affinity for δOR” value is reported as “no affinity”. In [4] (HEK-293 cells stably expressing HA-tagged mouse μOR, 10 min stimulation), the ERK1/2 phosphorylation entry is given as “dose dependently activates the Map Kinases, ERK1/2, in a μOR antagonist reversible manner”. In data set [4] (naloxone 10 μM during the 30 min serum starvation), the “Compound Vb-induced ERK activation after naloxone pretreatment” value is “blocked”. Also, in data set [5], the μOR1-D internalization entry is “fails to internalize this receptor variant”. Moreover, the “affinity for μOR relative to κOR” value in data set [6] is recorded as “greater affinity for μOR over κOR”. For the same compound, the βarr2-GFP translocation entry is recorded as “does not induce βarr2-GFP translocation” in data set [7] (HEK-293, 2 μM, 10 min); “does not promote βarr2-GFP translocation” in [7] (HEK-293 overexpressing GRK2, 2 μM, 10 min); “does not promote βarr2-GFP translocation” in data set [7] (HEK-293 overexpressing GRK2, 100 μM, 30 min). In [8] (acute (Day 1) and chronic (Day 5) vs vehicle), the “total number of flinches in second phase of formalin test” value is recorded as “significantly inhibits formalin-induced flinching compared to vehicle in both treatment paradigms”. Also, the “antinociception Day 5 vs Day 1” value in data set [8] (chronic treatment 5 days) was “significantly more Compound Vb-induced antinociception than seen on Day 1”. Also, the “antinociception after naloxone pretreatment” value in [8] (naloxone 5 mg/kg s.c. 30 min prior) is on record as “reversible by naloxone pretreatment”. The “antinociception after nor-BNI pretreatment” value in data set [8] (nor-BNI 5 mg/kg s.c. 24 hours prior) was “did not block Compound Vb's efficacy but rather significantly enhanced it”. Moreover, the “development of antinociceptive tolerance” value in data set [8] (repeated administration, 5 days) is reported as “did not lead to the development of antinociceptive tolerance”. Further, the “antinociception in formalin paw-withdrawal test” value in [8] (˜0.04 mg/kg s.c. paw, 5 min prior to 1.25% formalin, acute) is “produced significant antinociception in the second phase”. In addition, the “μOR phosphorylation at serine 375” value in data set [9] was “does not promote robust phosphorylation”. Besides, the μOR-YFP internalization entry in data set [10] (HEK-293 overexpressing GRK2 (5 μg cDNA)) was “does not”; in [10] (setting [12]), “do not induce receptor internalization”.
`CN1CC[C@]23c4c5ccc(O)c4O[C@H]2[C@@H](O)C=C[C@H]3[C@H]1C5` [morphine]: the development of tolerance entry in data set [11] is recorded as “produces tolerance”.
The compound `COC(=O)[C@@H]1C[C@H](OC(=O)c2cc3ccccc3o2)C(=O)[C@H]2[C@@]1(C)CC[C@H]1C(=O)O[C@H](c3ccoc3)C[C@]21C` yielded a melting point of 226 to 227 °C.
Same read-out and setting: to `COC(=O)[C@@H]1C[C@H](OC(=O)c2cccs2)C(=O)[C@H]2[C@@]1(C)CC[C@H]1C(=O)O[C@H](c3ccoc3)C[C@]21C` belongs 143 to 145 °C; to `COC(=O)[C@@H]1C[C@H](OS(=O)(=O)c2ccccc2)C(=O)[C@@H]2[C@@]3(C)C[C@@H](c4ccoc4)OC(=O)[C@H]3CC[C@]21C`, 157 to 159 °C (dec.).
Regarding `C[C@@H](NC(=O)[C@@H](N)Cc1ccc(O)cc1)C(=O)NCC(=O)N(C)[C@@H](Cc1ccccc1)C(=O)NCCO` [DAMGO, [D-Ala^2, N-MePhe^4, Gly^5-ol]Enkephalin, reference compound], the “loss of cell surface receptors” value in [1] is 40%. In [7] (HEK-293, 1 μM), the βarr2-GFP translocation result is “leads to βarr2-GFP translocation within 5 min”. Further, the μOR-YFP internalization entry in data set [10] (setting [12]) is “Internalization can be seen”.
As for `COC(=O)[C@@H]1C[C@H](OS(=O)(=O)c2ccc(OC)cc2)C(=O)[C@@H]2[C@@]3(C)C[C@@H](c4ccoc4)OC(=O)[C@H]3CC[C@]21C`, the melting point is 148 to 149 °C (dec.).
The same measure, in the same setting: the value for `COC(=O)[C@@H]1C[C@@H](C(=O)CCc2ccccc2)C(=O)[C@@H]2[C@@]3(C)C[C@@H](c4ccoc4)OC(=O)[C@H]3CC[C@]21C` was 155 to 158 °C; that for `COC(=O)[C@@H]1C[C@H](OC(=O)c2cccc(Br)c2)C(=O)[C@@H]2[C@@]3(C)C[C@@H](c4ccoc4)OC(=O)[C@H]3CC[C@]21C` was 195 to 199 °C.
